Data taken from US10266567B2, “Peptides and compositions comprising same and uses thereof in the treatment of diseases” (Ariel-University Research and Development Company Ltd., priority 2015, dated 2019).
“Also recorded” adds a separate entry of the source. Bridge positions count the residues as written; N and C are the ends. Ends that are not written are not given here.

Legend:
[1] = system: B16-F10 melanoma cells; assay: Metastatic melanoma mice model using B16F10 cells; format: in vivo, C57BL/6 mice
Procedure: Metastatic melanoma mice model using B16F10 cells. Murine B16F10 cells grown in RPMI were harvested by trypsinization and washed with PBS. The cells were counted and resuspended in PBS to final concentrations of 1.0×10^5 cells/mL and were maintained at 4° C. for immediate i.v inoculation into the tail vein of C57BL6 male mice (Harlan Labs). Next day, following tumor cell inoculation, these animals received i.p. injection of ALOS peptide or saline. Injections were performed daily throughout the working week. Mice were weighed daily on the day of injection.
For analysis of the peptides' effect on melanoma nodule formation all mice were sacrificed 18 days following the i.v. injection. Organs were dissected analyzed visually. The lungs of sacrificed mice were rinsed in saline and fixed with Bouin's solution. The total number of visible nodules on the lung surface per animal was counted.
For analysis of the peptides' effect on survival of melanoma cell-inoculated mice, animals were observed several times a week for signs of lethargy such as weight loss, hunched position and epilepsy. In order to lessen suffering, when these symptoms occurred, mice were euthanized with cervical dislocation after CO2 anesthesia. Survival time was recorded and long-term survivors were defined as animals surviving longer than 3 times the median survival of non-treated animals.
ALOS3 and ALOS4 block melanoma growth in metastatic melanoma mice model: An important clinical problem of malignant tumors is that lethality is mostly attributed to metastasis of the primary neoplastic cells. Complete eradication of the primary malignant cells is usually limited, due to location of the tumor, spread to distant organs and severe side effects caused by treatment. The effects of ALOS 3 and 4 on artificial metastasis, using highly metastatic melanoma B16-F10 cells was studied. 5×10^4 cells of B16-F10/0.2 ml/mouse were injected into the tail vein of 8 weeks old C57BL/6 mice. […] 18 days later the mice were sacrificed, lungs were dissected and the total number of visible nodules on the lung surface was counted. […]

[2] = Elevated Plus Maze (EPM) test in metastatic melanoma mice; format: in vivo; details: 0.3 mg/kg chronic, vs control, p<0.01
Procedure: The EPM apparatus comprises two closed (10 cm×45 cm×40 cm) and two open (10 cm×45 cm) arms that extend from a common central platform (10 cm×10 cm). The black apparatus is elevated to a height of 60 cm above floor level. The tests were conducted at the same time of the day (10.00-12.00 h) during the period of illumination in the mice's colony room. For habituation, all animals were placed in the experimental room one hour prior to the test. Each animal was placed at the center of the maze, facing one of the closed arms. Each mouse spent a five minute session in the EPM, during which the number of entries into open and closed arms as well as time spent in the open and closed arms were video scored.

Sequence: CAPSPSRLC (disulfide 1-9 (inferred)) [ALOS3]
- Survival of metastatic melanoma mice ([1]; 0.3 mg/kg daily i.p., 5×10^3 B16-F10 cells i.v., vs saline): significantly increased the survival; also recorded: significantly delayed animals' death
- Number of metastatic melanoma sites (visible nodules) in the lungs ([1]; 0.3 mg/kg daily i.p., 5×10^4 B16-F10 cells i.v., day 18): significantly blocked the number of metastatic melanoma sites in the lungs
- Animals' weight during treatment course ([1]; metastatic melanoma mice, ALOS vs saline): did not show weight loss
- EPM performance (ratio of time spent in open arms to total time), anxiolytic effect [2]: significantly increased the performance of the mice; also recorded: exerted anxiolytic effect
